Assay results taken from patent US20100048660A1, “TREATMENT OF DUCHENNE MUSCULAR DYSTROPHY” (priority 2006, published 2010).

Test system: Utrophin A promoter linked to a luciferase reporter gene (H2K/mdx/Utro A reporter cell line)
Test: Luciferase reporter assay (murine H2K cells)
Assay type: cell-based
Conditions: Mus musculus; Table 1; murine H2K mdx myoblasts, compound final concentration 10 μM, 48 hrs; read-out: Activity (luciferase reporter assay, relative to control)
Procedure: 1. Luciferase Reporter Assay (Murine H2K Cells)
The cell line used for the screen is an immortalized mdx mouse H2K cell line that has been stably transfected with a plasmid containing ≈5 kb fragment of the Utrophin A promoter including the first untranslated exon linked to a luciferase reporter gene (see FIG. 1).
Under conditions of low temperature and interferon containing media, the cells remain as myoblasts. These are plated into 96 well plates and cultured in the presence of compound for three days. The level of luciferase is then determined by cell lysis and reading of the light output from the expressed luciferase gene utilising a plate luminometer.
The H2K/mdx/Utro A reporter cell line was passaged twice a week until ≦30% confluent. The cells were grown at 33° C. in the presence of 10% CO2
The H2K/mdx/Utro A reporter cell line cells were plated out into 96 well plates (Falcon 353296, white opaque) at a density of approximately 5000 cells/well in 190 μl normal growth medium. The plates were then incubated at 33° C. in the presence of 10% CO2 for 24 hrs.
Compounds were dosed by adding 10 μl of diluted compound to each well giving a final concentration of 10 μM. The plates were then incubated for a further 48 hrs
Cells were then lysed in situ following the manufacture's protocols (Promega Steady-Glo Luciferase Assay System (E2520). Then counted for 10 seconds using a plate luminometer (Victorl420).

Structure (SMILES)	activity at 10 µM [%]
Cc1cc2nn(-c3ccc(Cl)cc3)nc2cc1NC(=O)c1ccco1 [Example 11, N-(2-(4-chlorophenyl)-6-methyl-2H-benzo[d][1,2,3]triazol-5-yl)furan-2-carboxamide]	201 to 300
CCCCC(=O)Nc1ccc2nn(-c3ccc(N(CC)CC)cc3)nc2c1 [Example 25, N-(2-(4-(diethylamino)phenyl)-2H-benzo[d][1,2,3]triazol-5-yl)pentanamide]	< 200
CCCCC(=O)Nc1cc2nn(-c3ccc(Cl)cc3)nc2cc1C [Example 9, N-(2-(4-chlorophenyl)-6-methyl-2H-benzo[d][1,2,3]triazol-5-yl)pentanamide]	201 to 300
CCCC(=O)Nc1ccc2nn(-c3ccc(N(CC)CC)cc3)nc2c1 [Example 24, N-(2-(4-(diethylamino)phenyl)-2H-benzo[d][1,2,3]triazol-5-yl)butyramide]	< 200
CCN(CC)c1ccc(-n2nc3cc(C)c(NC(=O)C(C)C)cc3n2)cc1 [Example 17, N-(2-(4-(diethylamino)phenyl)-6-methyl-2H-benzo[d][1,2,3]triazol-5-yl)isobutyramide]	< 200
CCN(CC)c1ccc(-n2nc3cc(C)c(NC(=O)c4ccco4)cc3n2)cc1 [Example 18, N-(2-(4-(diethylamino)phenyl)-6-methyl-2H-benzo[d][1,2,3]triazol-5-yl)furan-2-carboxamide]	< 200
CS(=O)(=O)c1ccc2cn(-c3ccc(Cl)cc3)nc2c1 [Example 44, 2-(4-chlorophenyl)-6-(methylsulfonyl)-2H-indazole]	201 to 300
CCN(CC)c1ccc(-n2nc3cc(C)c(NC(=O)c4ccncc4)cc3n2)cc1 [Example 13, N-(2-(4-(diethylamino)phenyl)-6-methyl-2H-benzo[d][1,2,3]triazol-5-yl)isonicotinamide]	301 to 400
CCN(CC)c1ccc(-n2nc3ccc(NC(=O)c4cccnc4)cc3n2)cc1 [Example 20, N-(2-(4-(diethylamino)phenyl)-2H-benzo[d][1,2,3]triazol-5-yl)nicotinamide]	201 to 300
Cc1cc2nn(-c3ccc(Cl)cc3)nc2cc1NC(=O)C(C)C [Example 10, N-(2-(4-chlorophenyl)-6-methyl-2H-benzo[d][1,2,3]triazol-5-yl)isobutyramide]	201 to 300
CCC(=O)Nc1cc2nn(-c3ccc(Cl)cc3)nc2cc1C [Example 7, N-(2-(4-chlorophenyl)-6-methyl-2H-benzo[d][1,2,3]triazol-5-yl)propionamide]	< 200
CCN(CC)c1ccc(-n2nc3ccc(NC(=O)c4ccc(Cl)cc4)cc3n2)cc1 [Example 32, 4-chloro-N-(2-(4-(diethylamino)phenyl)-2H-benzo[d][1,2,3]triazol-5-yl)benzamide]	< 200
CCCC(=O)Nc1cc2nn(-c3ccc(Cl)cc3)nc2cc1C [Example 8, N-(2-(4-chlorophenyl)-6-methyl-2H-benzo[d][1,2,3]triazol-5-yl)butyramide]	201 to 300
CCCC(=O)Nc1cc2nn(-c3ccc(N(CC)CC)cc3)nc2cc1C [Example 15, N-(2-(4-(diethylamino)phenyl)-6-methyl-2H-benzo[d][1,2,3]triazol-5-yl)butyramide]	< 200
Cc1cc2nn(-c3ccc(Cl)cc3)nc2cc1NC(=O)c1cccnc1 [Example 1, N-(2-(4-chlorophenyl)-6-methyl-2H-benzo[d][1,2,3]triazol-5-yl)nicotinamide]	301 to 400
CN1CCN(c2ccc(-n3nc4ccc(N)cc4n3)cc2)CC1 [Example 42, 2-(4-(4-methylpiperazin-1-yl)phenyl)-2H-benzo[d][1,2,3]triazol-5-amine]	< 200
CCCC(=O)Nc1ccc2nn(-c3ccc(Cl)cc3)nc2c1 [Example 36, N-(2-(4-chlorophenyl)-2H-benzo[d][1,2,3]triazol-5-yl)butyramide]	301 to 400
CC(C)C(=O)Nc1ccc2nn(-c3ccc(Cl)cc3)nc2c1 [Example 37, N-(2-(4-chlorophenyl)-2H-benzo[d][1,2,3]triazol-5-yl)isobutyramide]	> 401
CCN(CC)c1ccc(-n2nc3ccc(NC(C)=O)cc3n2)cc1 [Example 22, N-(2-(4-(diethylamino)phenyl)-2H-benzo[d][1,2,3]triazol-5-yl)acetamide]	201 to 300

Structure (SMILES)	activity at 10 µM [%]
CCN(CC)c1ccc(-n2nc3ccc(NC(=O)c4ccc(OC)cc4)cc3n2)cc1 [Example 30, N-(2-(4-(diethylamino)phenyl)-2H-benzo[d][1,2,3]triazol-5-yl)-4-methoxybenzamide]	< 200
Nc1ccc2nn(-c3ccc(N4CCCCC4)cc3)nc2c1 [Example 40, 2-(4-(piperidin-1-yl)phenyl)-2H-benzo[d][1,2,3]triazol-5-amine]	201 to 300
Cc1cc2nn(-c3ccc(Cl)cc3)nc2cc1NC(=O)c1ccccc1 [Example 3, N-(2-(4-chlorophenyl)-6-methyl-2H-benzo[d][1,2,3]triazol-5-yl)benzamide]	< 200
CCN(CC)c1ccc(-n2nc3ccc(NC(=O)c4ccccc4)cc3n2)cc1 [Example 29, N-(2-(4-(diethylamino)phenyl)-2H-benzo[d][1,2,3]triazol-5-yl)benzamide]	< 200
Cc1cc2nn(-c3ccc(Cl)cc3)nc2cc1NC(=O)c1cccs1 [Example 6, N-(2-(4-chlorophenyl)-6-methyl-2H-benzo[d][1,2,3]triazol-5-yl)thiophene-2-carboxamide]	301 to 400
Nc1ccc2nn(-c3ccc(Cl)cc3)nc2c1 [Example 38, 2-(4-chlorophenyl)-2H-benzo[d][1,2,3]triazol-5-amine]	< 200
COc1ccc(C(=O)Nc2cc3nn(-c4ccc(Cl)cc4)nc3cc2C)cc1 [Example 4, N-(2-(4-chlorophenyl)-6-methyl-2H-benzo[d][1,2,3]triazol-5-yl)-4-methoxybenzamide]	201 to 300
CCN(CC)c1ccc(-n2nc3cc(C)c(NC(=O)c4cccnc4)cc3n2)cc1 [Example 12, N-(2-(4-(diethylamino)phenyl)-6-methyl-2H-benzo[d][1,2,3]triazol-5-yl)nicotinamide]	301 to 400
COc1ccccc1C(=O)Nc1cc2nn(-c3ccc(Cl)cc3)nc2cc1C [Example 5, N-(2-(4-chlorophenyl)-6-methyl-2H-benzo[d][1,2,3]triazol-5-yl)-2-methoxybenzamide]	< 200
CCC(=O)Nc1ccc2nn(-c3ccc(Cl)cc3)nc2c1 [Example 35, N-(2-(4-chlorophenyl)-2H-benzo[d][1,2,3]triazol-5-yl)propionamide]	> 401
Cc1cc2nn(-c3ccc(N4CCOCC4)cc3)nc2cc1N [Example 34, 6-methyl-2-(4-morpholinophenyl)-2H-benzo[d][1,2,3]triazol-5-amine]	201 to 300
CCN(CC)c1ccc(-n2nc3ccc(NC(=O)c4cccs4)cc3n2)cc1 [Example 28, N-(2-(4-(diethylamino)phenyl)-2H-benzo[d][1,2,3]triazol-5-yl)thiophene-2-carboxamide]	< 200
CCCCC(=O)Nc1cc2nn(-c3ccc(N(CC)CC)cc3)nc2cc1C [Example 16, N-(2-(4-(diethylamino)phenyl)-6-methyl-2H-benzo[d][1,2,3]triazol-5-yl)pentanamide]	< 200
CC(C)C(=O)Nc1ccc2cn(-c3ccc(Cl)cc3)nc2c1 [Example 46, N-(2-(4-chlorophenyl)-2H-indazol-6-yl)isobutyramide]	> 401
CCN(CC)c1ccc(-n2nc3ccc(N)cc3n2)cc1 [Example 19, 2-(4-(diethylamino)phenyl)-2H-benzo[d][1,2,3]triazol-5-amine]	301 to 400
Clc1ccc(-n2cc3ccccc3n2)cc1 [Example 48, 2-(4-chlorophenyl)-2H-indazole]	> 401
CCC(=O)Nc1cc2nn(-c3ccc(N(CC)CC)cc3)nc2cc1C [Example 14, N-(2-(4-(diethylamino)phenyl)-6-methyl-2H-benzo[d][1,2,3]triazol-5-yl)propionamide]	< 200
CCN(CC)c1ccc(-n2nc3ccc(NC(=O)c4ccc(N(C)C)cc4)cc3n2)cc1 [Example 33, N-(2-(4-(diethylamino)phenyl)-2H-benzo[d][1,2,3]triazol-5-yl)-4-(dimethylamino)benzamide]	< 200
CC(C)S(=O)(=O)c1ccc2cn(-c3ccc(Cl)cc3)nc2c1 [Example 56, 2-(4′-Chlorophenyl)-6-(isopropylsulfonyl)-2H-indazole]	> 401

Same assay, conditions: Mus musculus; Table 2; murine H2K mdx myoblasts, compound final concentration 10 μM, 48 hrs; read-out: Activity (luciferase reporter assay, relative to control)

Structure (SMILES)	activity at 10 µM [%]
CCc1ccc(-n2nc3ccc(N)cc3n2)cc1 [Example 68, 2-(4-ethylphenyl)-2H-benzo[d][1,2,3]triazol-5-amine]	201 to 300
CC(=O)Nc1cc2nn(-c3ccccc3)nc2cc1C [Example 67, N-(6-methyl-2-phenyl-2H-benzo[d][1,2,3]triazol-5-yl)acetamide]	201 to 300
CC(=O)Nc1ccc2nn(-c3ccc(F)cc3)nc2c1 [Example 69, N-(2-(4-fluorophenyl)-2H-benzo[d][1,2,3]triazol-5-yl)acetamide]	201 to 300
Cc1ccc(-n2nc3ccc(N)cc3n2)cc1C [Example 63, 2-(3,4-dimethylphenyl)-2H-benzo[d][1,2,3]triazol-5-amine]	< 200
